Experimental data as given in patent publication US20240083857A1, “2-Methyl-Quinazolines” (Bayer Pharma Aktiengesellschaft, priority 2017, published 2024).
Where two headings read alike, the source gives them in different places.

Tests used:
[1] = target: human SOS1 (loading of human K-Ras^G12C-GDP with fluorescent GTP-analog) (Homo sapiens, UniProt Q07889); assay: Biochemical assay 3: K-Ras^G12C activation assay by hSOS1 (HTRF)
[2] = target: K-Ras^G12C : hSOS1 interaction (Homo sapiens, UniProt Q07889); assay: Biochemical assay 1: K-Ras^G12C interaction assay with hSOS1 (HTRF); type: binding
[3] = target: Epidermal Growth Factor Receptor (EGFR) (Homo sapiens (Human), UniProt P00533); assay: EGFR kinase assay (TR-FRET); type: biochemical
Sequence of Epidermal Growth Factor Receptor (EGFR) (P00533 25-1210): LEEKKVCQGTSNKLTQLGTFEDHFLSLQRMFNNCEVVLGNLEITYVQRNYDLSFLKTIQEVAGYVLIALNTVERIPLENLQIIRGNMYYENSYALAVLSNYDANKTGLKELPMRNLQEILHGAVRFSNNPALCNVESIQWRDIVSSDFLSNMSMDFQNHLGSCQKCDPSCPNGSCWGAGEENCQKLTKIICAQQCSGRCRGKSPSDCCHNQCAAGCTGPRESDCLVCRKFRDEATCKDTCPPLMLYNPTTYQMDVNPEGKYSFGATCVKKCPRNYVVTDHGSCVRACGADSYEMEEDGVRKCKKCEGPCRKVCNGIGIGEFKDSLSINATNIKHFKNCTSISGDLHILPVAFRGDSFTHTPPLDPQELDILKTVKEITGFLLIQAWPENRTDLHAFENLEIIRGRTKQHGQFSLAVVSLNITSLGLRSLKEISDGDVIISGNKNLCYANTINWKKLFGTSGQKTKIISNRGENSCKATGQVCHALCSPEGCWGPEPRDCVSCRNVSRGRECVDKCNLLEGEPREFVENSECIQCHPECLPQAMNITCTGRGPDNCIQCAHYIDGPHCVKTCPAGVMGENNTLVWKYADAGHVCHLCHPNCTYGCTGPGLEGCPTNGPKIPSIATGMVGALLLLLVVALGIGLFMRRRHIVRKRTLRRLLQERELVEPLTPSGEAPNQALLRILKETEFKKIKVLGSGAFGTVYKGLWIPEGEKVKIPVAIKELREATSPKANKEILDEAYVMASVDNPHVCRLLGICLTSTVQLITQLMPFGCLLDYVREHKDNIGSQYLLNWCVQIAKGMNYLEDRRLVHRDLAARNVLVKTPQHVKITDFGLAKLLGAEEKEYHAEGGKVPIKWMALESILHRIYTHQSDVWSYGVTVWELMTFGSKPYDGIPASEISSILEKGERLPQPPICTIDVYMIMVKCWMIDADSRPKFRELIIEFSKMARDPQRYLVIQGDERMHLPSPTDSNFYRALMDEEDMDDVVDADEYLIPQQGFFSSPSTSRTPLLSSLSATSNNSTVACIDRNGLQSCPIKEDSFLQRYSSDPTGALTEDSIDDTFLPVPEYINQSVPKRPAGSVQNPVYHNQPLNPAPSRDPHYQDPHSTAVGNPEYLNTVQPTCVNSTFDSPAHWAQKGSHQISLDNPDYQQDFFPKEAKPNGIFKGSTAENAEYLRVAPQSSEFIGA
Source text: EGFR inhibitory activity of compounds of the present invention was quantified employing the TR-FRET based EGFR assay as described in the following paragraphs.
Epidermal Growth Factor Receptor (EGFR) affinity purified from human carcinoma A431 cells (Sigma-Aldrich, #E3641) was used as kinase. As substrate for the kinase reaction the biotinylated peptide biotin-Ahx-[…] (SEQ ID NO 5) (C-terminus in amid form) was used which can be purchased e.g. form the company Biosyntan GmbH (Berlin-Buch, Germany).
For the assay 50 nL of a 100 fold concentrated solution of the test compound in DMSO was pipetted into a black low volume 384 well microtiter plate (Greiner Bio-One, Frickenhausen, Germany), 2 μL of a solution of EGFR in aqueous assay buffer [50 mM Hepes/HCl pH 7.0, 1 mM MgCl2, 5 mM MnCl2, 0.5 mM activated sodium ortho-vanadate, 0.005% (v/v) Tween-20]were added and the mixture was incubated for 15 min at 22° C. to allow pre-binding of the test compounds to the enzyme before the start of the kinase reaction. […] The concentration of EGFR was adjusted depending of the activity of the enzyme lot and was chosen appropriate to have the assay in the linear range, typical concentration were about 3 U/ml. The reaction was stopped by the addition of 5 μl of a solution of HTRF detection reagents (0.1 μM streptavidine-XL665 [Cis Biointernational] and 1 nM PT66-Tb-Cryptate, an terbium-cryptate labelled anti-phospho-tyrosine antibody from Cis Biointernational [instead of the PT66-Tb-cryptate PT66-Eu-Chelate from Perkin Elmer can also be used]) in an aqueous EDTA-solution (80 mM EDTA, 0.2% (w/v) bovine serum albumin in 50 mM HEPES pH 7.5).
The resulting mixture was incubated 1 h at 22° C. to allow the binding of the biotinylated phosphorylated peptide to the streptavidine-XL665 and the PT66-Eu-Chelate. Subsequently the amount of phosphorylated substrate was evaluated by measurement of the resonance energy transfer from the PT66-Tb-Cryptate to the streptavidine-XL665. Therefore, the fluorescence emissions at 620 nm and 665 nm after excitation at 337 nm were measured in a HTRF reader, e.g. a Pherastar (BMG Labtechnologies, Offenburg, Germany) or a Viewlux (Perkin-Elmer). The ratio of the emissions at 665 nm and at […] was taken as the measure for the amount of phosphorylated substrate.

[4] = target: human SOS1 (nucleotide exchange of K-Ras^G12C) (Homo sapiens, UniProt Q07889); assay: Biochemical assay 2: K-Ras^G12C activation assay by hSOS1 at high GTP concentration (HTRF); conditions: E-notation values; unit inferred; 50 μM GTP; read-out: Assay 2 (KRAS-Activation, high GTP) IC50
[5] = read-out: Assay 1 (KRAS-SOS Interaction) activity expressed as IC50
[6] = values given in μM, read-out: EGFR kinase inhibition IC50
[7] = no GTP, read-out: Assay 3 (KRAS-Activation by SOS no GTP) activity expressed as IC50
[8] = E-notation values, unit inferred, read-out: EGFR-assay IC50
[9] = E-notation values, unit inferred, read-out: Assay 3 (KRAS-Activation) IC50

Row | SMILES | inhibition at 20 µM ([1]; read-out: Assay 3 (KRAS-Activation by SOS no GTP) activity expressed as % inhibition at 20 μM, no GTP, at 20 μM) [%] | IC50 [2, 5] [µM] | IC50 [3, 6] [µM] | IC50 [1, 7] [µM] | IC50 ([2]; E-notation values, unit inferred, read-out: Assay 1 (KRAS-SOS interaction) IC50) [µM] | IC50 [4] [µM] | IC50 [3, 8] [µM] | IC50 [1, 9] [µM]
1 | COc1cc2nc(C)nc(NC(C)c3ccc(Br)o3)c2cc1OC (stereo not drawn) [Example 208, N-[1-(5-bromofuran-2-yl)ethyl]-6,7-dimethoxy-2-methylquinazolin-4-amine] | 47 | 5.97 | > 20 |  |  |  |  | 
2 | COc1cc2nc(C)nc(NC(C)c3ccc(Br)s3)c2cc1OC (stereo not drawn) [Example 209, N-[1-(5-bromothiophen-2-yl)ethyl]-6,7-dimethoxy-2-methylquinazolin-4-amine] |  | 1.08 | > 20 | 4.95 |  |  |  | 
3 | COc1cc2nc(C)nc(NC(C)c3cccc4ncccc34)c2cc1OC (stereo not drawn) [Example 212, 6,7-dimethoxy-2-methyl-N-[1-(quinolin-5-yl)ethyl]quinazolin-4-amine] |  | 0.646 | > 20 | 2.64 |  |  |  | 
4 | Cc1nc(NC(C)c2ccc(-c3ccccc3CN(C)C)s2)c2cc([N+](=O)[O-])ccc2n1 (stereo not drawn) [Example 421, N-[1-(5-{2-[(dimethylamino)methyl]phenyl}thiophen-2-yl)ethyl]-2-methyl-6-nitroquinazolin-4-amine] |  |  |  |  | 0.145 | 0.222 | > 20 | 
5 | COc1cc2nc(C)nc(N[C@H](C)c3cccc(-c4cn[nH]c4)c3)c2cc1OCCS(C)(=O)=O [Example 448, 7-methoxy-2-methyl-6-[2-(methylsulfonyl)ethoxy]-N-{(1R)-1-[3-(1H-pyrazol-4-yl)phenyl]ethyl}quinazolin-4-amine] |  |  |  |  |  | > 20 | > 20 | > 20
6 | COc1cc2nc(C)nc(NC(C)c3ccc(-c4ccc(Cl)cc4CNC(=O)OC(C)(C)C)s3)c2cc1OC (stereo not drawn) [Example 449, tert-butyl [5-chloro-2-(5-{1-[(6,7-dimethoxy-2-methylquinazolin-4-yl)amino]ethyl}thiophen-2-yl)benzyl]carbamate] |  |  |  |  |  | > 20 | > 20 | > 20
7 | COc1cc2nc(C)nc(NC(C)c3ccc(-c4cccc(Cl)c4CNC(=O)OC(C)(C)C)s3)c2cc1OC (stereo not drawn) [Example 450, tert-butyl [2-chloro-6-(5-{1-[(6,7-dimethoxy-2-methylquinazolin-4-yl)amino]ethyl}-thiophen-2-yl)benzyl]carbamate] |  |  |  |  |  | > 20 | > 20 | > 20
8 | Cc1nc(N[C@H](C)c2cccc(Cl)c2)c2ccc(Br)cc2n1 [Example 451, 7-bromo-N-[(1R)-1-(3-chlorophenyl)ethyl]-2-methylquinazolin-4-amine] |  |  |  |  |  | > 20 | > 20 | > 20
9 | Cc1nc(NC(C)c2ccc(Br)s2)c2cc([N+](=O)[O-])ccc2n1 (stereo not drawn) [Example 452, N-[1-(5-bromothiophen-2-yl)ethyl]-2-methyl-6-nitroquinazolin-4-amine] |  |  |  |  |  | > 20 | > 20 | > 20
10 | COC(=O)c1ccc2c(N[C@H](C)c3cccc(Cl)c3)nc(C)nc2c1 [Example 453, methyl 4-{[(1R)-1-(3-chlorophenyl)ethyl]amino}-2-methylquinazoline-7-carboxylate] |  |  |  |  |  | > 20 | > 20 | > 20
